Assay results from patent US20070066606A1, “Benzylbenzimidazolyl derivatives” (priority 2003, published 2007).

Molecular target: TIE-2 (Homo sapiens, UniProt Q02763)
Test: TIE-2 kinase flashplate assay (phosphorylation of poly(Glu, Tyr) with 33P-ATP)
Assay type: biochemical
Settings: read-out: Inhibition of TIE-2 IC50
Method: The TIE-2 tests can be carried out, for example, analogously to the methods indicated in WO 02/44156.
The assay determines the inhibiting activity of the substances to be tested in the phosphorylation of the substrate poly(Glu, Tyr) by Tie-2 kinase in the presence of radioactive ^33P-ATP. The phosphorylated substrate binds to the surface of a “flashplate” microtitre plate during the incubation time. After removal of the reaction mixture, the microtitre plate is washed a number of times and the radioactivity on its surface is subsequently measured. An inhibiting effect of the substances to be measured results in lower radioactivity compared with an undisturbed enzymatic reaction.

Sequence of TIE-2 (Q02763 23-1124, species assumed): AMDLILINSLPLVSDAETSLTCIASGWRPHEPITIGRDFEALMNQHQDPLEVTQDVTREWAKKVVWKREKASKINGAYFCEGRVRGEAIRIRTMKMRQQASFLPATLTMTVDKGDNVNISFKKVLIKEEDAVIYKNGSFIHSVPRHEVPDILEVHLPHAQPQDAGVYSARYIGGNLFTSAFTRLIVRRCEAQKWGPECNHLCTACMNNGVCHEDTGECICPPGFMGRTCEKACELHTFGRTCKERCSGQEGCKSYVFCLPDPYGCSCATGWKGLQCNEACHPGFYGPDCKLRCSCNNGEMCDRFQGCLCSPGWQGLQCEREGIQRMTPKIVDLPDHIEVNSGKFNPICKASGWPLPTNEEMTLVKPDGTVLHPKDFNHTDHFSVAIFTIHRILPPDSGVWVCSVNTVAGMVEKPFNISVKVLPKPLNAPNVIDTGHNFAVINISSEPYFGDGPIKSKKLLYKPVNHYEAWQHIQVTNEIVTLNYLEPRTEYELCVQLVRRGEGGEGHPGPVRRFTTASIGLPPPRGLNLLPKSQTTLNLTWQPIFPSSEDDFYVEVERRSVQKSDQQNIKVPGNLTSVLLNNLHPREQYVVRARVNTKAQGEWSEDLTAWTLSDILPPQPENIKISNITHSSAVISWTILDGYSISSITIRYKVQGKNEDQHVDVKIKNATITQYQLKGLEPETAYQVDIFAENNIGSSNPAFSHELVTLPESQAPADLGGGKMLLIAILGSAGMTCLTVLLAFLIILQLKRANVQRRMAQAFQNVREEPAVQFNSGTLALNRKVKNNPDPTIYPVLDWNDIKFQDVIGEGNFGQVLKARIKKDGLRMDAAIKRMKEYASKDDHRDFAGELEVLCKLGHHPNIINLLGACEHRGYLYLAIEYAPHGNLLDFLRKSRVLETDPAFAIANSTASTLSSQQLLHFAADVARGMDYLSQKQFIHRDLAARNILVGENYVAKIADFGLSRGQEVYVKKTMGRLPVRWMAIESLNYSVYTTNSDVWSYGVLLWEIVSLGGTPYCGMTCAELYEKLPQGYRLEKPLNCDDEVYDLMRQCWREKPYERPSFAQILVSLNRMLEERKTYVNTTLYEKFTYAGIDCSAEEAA

Structure (SMILES) | IC50 [nM]
Nc1nc2cc(CCCO)ccc2n1Cc1ccc(NS(=O)(=O)c2cccc(Cl)c2Cl)cc1 [N-{4-[2-amino-5-(3-hydroxy-propyl)benzimidazol-1-yl-methyl]phenyl}-2,3-dichloro-benzenesulfonamide] | 320
Nc1nc2cc(Br)ccc2n1Cc1ccc(NS(=O)(=O)c2cccc(Cl)c2Cl)cc1 [N-[4-(2-amino-5-bromo-benzimidazol-1-ylmethyl)-phenyl]-2,3-dichloro-benzenesulfonamide] | 2780
